The numbers were not newly measured in patent US20040092577A1, “Microparticle pharmaceutical compositions for intratumoral delivery” (priority 2002, published 2004), which cites them from elsewhere.

The conditions of data set [1]: gels, 0.6% loading; Zentner 2001.
Data set [2] has as its system MDA-468 breast cancer cells. As to conditions: Lankmela et al.

Consider `CC(=O)O[C@H]1C(=O)[C@@]2(C)[C@H]([C@H](OC(=O)c3ccccc3)[C@]3(O)C[C@H](OC(=O)[C@H](O)[C@@H](NC(=O)c4ccccc4)c4ccccc4)C(C)=C1C3(C)C)[C@]1(OC(C)=O)CO[C@@H]1C[C@@H]2O` [Paclitaxel], for which the duration of delivery in data set [1] is on record as 1 to 6 weeks.

Turning to `COc1cccc2c1C(=O)c1c(O)c3c(c(O)c1C2=O)C[C@@](O)(C(=O)CO)C[C@@H]3O[C@H]1C[C@H](N)[C@H](O)[C@H](C)O1` [doxorubicin], the “rate of uptake α” value in data set [2] is 0.016 s⁻¹.
